Assay [1] deals with model mice for non-insulin-depending diabetes mellitus (KK-A^y). The experiment in a line: Blood-sugar level of KK-A^y diabetic model mice fed test feed for 30 days. In kind it is in vivo. As to conditions: group D, feed D (2.5% L-arabinose, no sucrose) ad libitum, FIG. 2. As for the experimental part: Twenty model mice for non-insulin-depending diabetes mellitus showing hyperglycemia (260˜270 mg/liter) (KK-A^y, male, 8 weeks age, Nippon Clair) were preliminarily raised for one week, divided into two groups (group A and group B) and used for the test. Each of the mice was placed in a plastic cage separately and raised by keeping at 23±1° C. under a 12-hour bright-and-dark cycle (bright environment from 7 a.m. to 7 p.m. and dark environment from 7 p.m. to 7 a.m. of the next day) where feed and water were freely taken by the mice. Blood-sugar level (concentration of glucose in blood) was measured by a glucose oxidase method after collecting the blood from the venous plexus of the eyeground at 9 a.m.
The feed A mentioned in Table 1 (a feed containing α-corn starch, sucrose, and cellulose as carbohydrate sources but containing no L-arabinose) was given to the mice of group A while the feed B mentioned in Table 1 (a feed containing α-com starch, sucrose, and cellulose as carbohydrate sources and also containing L-arabinose) was given to the mice of group B and the study was carried out for 30 days. […]

The subject of a further assay is mice. As to conditions: 30 to 120 minutes after loading with sucrose; cited from earlier work.
The target in a further assay is sucrase (Homo sapiens, UniProt P14410). The settings on record: sucrose-decomposing enzyme in the small intestine; cited from earlier work.
Sequence of sucrase (P14410 whole entry, species assumed): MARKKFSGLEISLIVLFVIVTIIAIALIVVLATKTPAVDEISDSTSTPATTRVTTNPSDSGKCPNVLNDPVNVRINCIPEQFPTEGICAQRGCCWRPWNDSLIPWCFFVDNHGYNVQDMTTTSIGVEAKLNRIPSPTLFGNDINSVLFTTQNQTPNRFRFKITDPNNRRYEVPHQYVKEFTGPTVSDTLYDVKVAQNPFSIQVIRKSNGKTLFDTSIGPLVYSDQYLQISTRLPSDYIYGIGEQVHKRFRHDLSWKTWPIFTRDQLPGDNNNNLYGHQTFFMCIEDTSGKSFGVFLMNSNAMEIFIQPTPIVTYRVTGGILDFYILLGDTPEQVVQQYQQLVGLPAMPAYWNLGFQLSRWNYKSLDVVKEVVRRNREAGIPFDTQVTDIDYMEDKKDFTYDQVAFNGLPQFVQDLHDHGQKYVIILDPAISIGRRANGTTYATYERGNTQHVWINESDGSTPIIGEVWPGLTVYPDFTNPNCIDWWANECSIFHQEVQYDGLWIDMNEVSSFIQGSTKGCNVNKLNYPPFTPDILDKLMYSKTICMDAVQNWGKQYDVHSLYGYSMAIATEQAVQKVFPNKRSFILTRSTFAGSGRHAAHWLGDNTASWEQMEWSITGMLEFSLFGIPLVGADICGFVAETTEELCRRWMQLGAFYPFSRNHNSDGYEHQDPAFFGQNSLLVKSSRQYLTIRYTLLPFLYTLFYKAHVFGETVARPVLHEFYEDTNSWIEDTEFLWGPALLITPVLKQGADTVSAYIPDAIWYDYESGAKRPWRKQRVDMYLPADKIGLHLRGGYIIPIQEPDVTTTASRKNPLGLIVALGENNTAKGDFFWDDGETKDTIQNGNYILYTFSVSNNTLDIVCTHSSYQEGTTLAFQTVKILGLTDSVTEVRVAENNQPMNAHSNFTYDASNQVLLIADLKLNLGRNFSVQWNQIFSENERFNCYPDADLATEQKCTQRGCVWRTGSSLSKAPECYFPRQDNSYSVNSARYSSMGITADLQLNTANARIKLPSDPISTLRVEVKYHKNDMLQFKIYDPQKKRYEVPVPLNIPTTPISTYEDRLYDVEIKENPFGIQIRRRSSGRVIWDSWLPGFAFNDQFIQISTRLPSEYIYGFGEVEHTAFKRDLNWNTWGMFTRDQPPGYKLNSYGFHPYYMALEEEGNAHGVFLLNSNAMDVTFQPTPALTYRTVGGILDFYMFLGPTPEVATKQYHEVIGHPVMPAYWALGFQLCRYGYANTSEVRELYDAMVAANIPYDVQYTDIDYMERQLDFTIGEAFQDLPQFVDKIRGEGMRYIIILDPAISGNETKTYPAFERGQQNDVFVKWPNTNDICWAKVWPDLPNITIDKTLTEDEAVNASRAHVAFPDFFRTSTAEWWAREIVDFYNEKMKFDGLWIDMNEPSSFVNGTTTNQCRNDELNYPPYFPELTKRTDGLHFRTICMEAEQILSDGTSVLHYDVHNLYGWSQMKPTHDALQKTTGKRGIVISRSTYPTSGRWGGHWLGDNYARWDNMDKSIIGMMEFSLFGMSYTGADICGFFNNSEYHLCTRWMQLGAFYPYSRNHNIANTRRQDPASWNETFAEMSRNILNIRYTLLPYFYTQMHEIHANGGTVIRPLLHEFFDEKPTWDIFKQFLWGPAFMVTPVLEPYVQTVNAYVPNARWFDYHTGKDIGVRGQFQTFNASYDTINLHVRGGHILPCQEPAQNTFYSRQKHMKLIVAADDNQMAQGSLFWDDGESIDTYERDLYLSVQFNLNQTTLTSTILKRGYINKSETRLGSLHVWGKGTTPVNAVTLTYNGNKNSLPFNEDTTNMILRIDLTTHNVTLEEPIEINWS

For the compound `O=C[C@H](O)[C@@H](O)[C@@H](O)CO` [L-arabinose], in assay [1], the “change in blood-sugar level, L-arabinose without sucrose” value was “no decrease in blood-sugar level takes place”. The “rise of blood-sugar level after loading with sucrose” value in the assay with mice was “suppressing the rise of blood-sugar level”. In addition, at sucrase, the action on sucrase entry was “inhibition of sucrase”.

The record behind these values is patent US20040038910A1, “Remedy for diabetes mellitus” (priority 2000, published 2004).
